Measurements published in US3956068A, “Antibiotic G-52 and method for the production thereof” (Schering Corporation, priority 1975, dated 1976).
Where a name gives a salt, the structure may show the parent alone.

How the values were obtained:
mice (CF-1) = assay: Acute toxicity in mice; assay type: in vivo; details: sulfate salt
Method: ^b The acute toxicity of Antibiotic G-52 in the form of the sulfate
salt is determined in the standard manner by administration of the
antibiotic to mice (CF-1) intravenously, subcutaneously and
intraperitoneally. The results are analyzed by standard probit procedures
to determine the LD50 values with 95% confidence limits.

[1] = system: Staphylococcus aureus A.T.C.C. 6538P; assay: Microbiological assay, standard disc plate assay; assay type: cell-based; details: against the standard antibiotic base (1000 mcg/mg)
Source text: 6538P as the test organism.

[2] = system: Staphylococcus aureus Gray; assay: In vivo protective activity in mice; design: species or system Mice (Carworth Farms CF-1); details: S.C., single dose of antibiotic (sulfate) 1 hour after intraperitoneal infection, survivors at 48 hours
Method: (§1) In vivo Activity of Antibiotic G-52 in Mice
(§2) ^a Mice (Carworth Farms CF-1 weighing about 18 - 20 grams) are treate
(§3) with a single dose of antibiotic (sulfate) one (1) hour after an
(§4) intraperitoneal infection with a lethal (10^7 organisms) quantity of
(§5) the infectious organism. The number of survivors are determined 48 hours
(§6) after infection and the data analyzed by standard probit procedures to
(§7) determine the PD50 values with 95% confidence limits.

Escherichia coli = assay: In vivo protective activity in mice; design: species or system Mice (Carworth Farms CF-1); details: S.C., single dose of antibiotic (sulfate) 1 hour after intraperitoneal infection, survivors at 48 hours
Method: as §1, §2, §3, §4, §5, §6, §7

Pseudomonas aeruginosa = assay: In vivo protective activity in mice; design: species or system Mice (Carworth Farms CF-1); details: S.C., single dose of antibiotic (sulfate) 1 hour after intraperitoneal infection, survivors at 48 hours
Method: as §1, §2, §3, §4, §5, §6, §7

[3] = Stability to boiling in buffer; assay type: physicochemical
Source text: Further, the antibiotic is stable to boiling for at least thirty (30) minutes in MacIlvaines buffer from pH 2 - 8 and in sodium hydroxide-boric acid buffer from pH 8 - 10.

Escherichia coli 578 = assay: In vitro antibacterial activity, minimum inhibitory concentration; assay type: cell-based; details: Tryptose phosphate broth at pH 7.2
Source text: (§8) In vitro Antibacterial Activity
(§9) Minimum Inhibitory Concentration
(§10) Test Medium: Tryptose phosphate broth at pH 7.2.

Staphylococcus aureus 45 = assay: as above; assay type: cell-based; details: Tryptose phosphate broth at pH 7.2
Source text: as §8, §9, §10

Proteus mirabilis 8019 = assay: as above; assay type: cell-based; details: Tryptose phosphate broth at pH 7.2
Source text: as §8, §9, §10

Streptococcus pyogenes C = assay: as above; assay type: cell-based; details: Tryptose phosphate broth at pH 7.2
Source text: as §8, §9, §10

[4] = system: Pseudomonas aeruginosa 130 - GR; assay: as above; assay type: cell-based; details: Tryptose phosphate broth at pH 7.2
Source text: as §8, §9, §10

[5] = system: Staphylococcus aureus 209P; assay: as above; assay type: cell-based; details: Tryptose phosphate broth at pH 7.2
Source text: as §8, §9, §10

[6] = system: Pseudomonas aeruginosa 236 - GR; assay: as above; assay type: cell-based; details: Tryptose phosphate broth at pH 7.2
Source text: as §8, §9, §10

[7] = system: Salmonella paratyphi 13311; assay: as above; assay type: cell-based; details: Tryptose phosphate broth at pH 7.2
Source text: as §8, §9, §10

Escherichia coli 11775 = assay: as above; assay type: cell-based; details: Tryptose phosphate broth at pH 7.2
Source text: as §8, §9, §10

[8] = system: Klebsiella pneumoniae Ad 17 - kR; assay: as above; assay type: cell-based; details: Tryptose phosphate broth at pH 7.2
Source text: as §8, §9, §10

What does the source list for `CNCC1=CC[C@@H](N)[C@@H](O[C@H]2[C@H](O)[C@@H](O[C@H]3OC[C@](C)(O)[C@H](NC)[C@H]3O)[C@H](N)C[C@@H]2N)O1` [Antibiotic G-52]?
LD50 (mice (CF-1); I.P.): 200 mg/kg; LD50 (mice (CF-1); I.V.): 50 mg/kg; LD50 (mice (CF-1); S.C.): 400 mg/kg; solubility in polar organic solvents (Solubility; lower alcohols, dimethylformamide, dimethylsulfoxide, pyridine): some degree of solubility in most polar organic solvents; solubility in water (Solubility; water): very soluble in water; potency (microbiological assay) ([1]; listed as Antibiotic G-52 Base): about 1000 mcg/mg; PD50 [2]: 2.5 mg/kg; PD50 (Escherichia coli): 2.5 mg/kg; PD50 (Pseudomonas aeruginosa): 1.5 mg/kg; stable to boiling ([3]; MacIlvaines buffer, pH 2 - 8): ≥ 30 min; stable to boiling ([3]; sodium hydroxide-boric acid buffer, pH 8 - 10): ≥ 30 min; Minimum Inhibitory Concentration (MIC) (Escherichia coli 578): 7.5 µg/mL; Minimum Inhibitory Concentration (MIC) (Staphylococcus aureus 45): 0.8 µg/mL; Minimum Inhibitory Concentration (MIC) (Proteus mirabilis 8019): 7.5 µg/mL; Minimum Inhibitory Concentration (MIC) (Streptococcus pyogenes C): 25 µg/mL; Minimum Inhibitory Concentration (MIC) [4]: 25 µg/mL; Minimum Inhibitory Concentration (MIC) [5]: 0.3 µg/mL; Minimum Inhibitory Concentration (MIC) [6]: 25 µg/mL; Minimum Inhibitory Concentration (MIC) [7]: 17.5 µg/mL; Minimum Inhibitory Concentration (MIC) (Escherichia coli 11775): 3.0 µg/mL; Minimum Inhibitory Concentration (MIC) [8]: 0.8 µg/mL

What does the source list for `CNCC1=CCC(N)C(OC2C(N)CC(N)C(OC3OCC(C)(O)C(NC)C3O)C2O)O1` (centres unmarked) [Antibiotic G-52 sulfate]?
potency (microbiological assay) [1]: about 675 mcg/mg; potency (microbiological assay) ([1]; listed as Antibiotic G-52 Sulfate): 660 mcg/mg
